Values belong to the compound of their own block, whether it stands above or below them.
Key:
Experiment in all cases: radiometric filter-binding kinase assay, Kinase HotSpot
Conditions in all cases: compound 0.5 µM; ATP 10 µM
MAP3K2 (human) = MAP3K2 (human) (UniProt Q9Y2U5)
CDK6 CCND1 (human) = CDK6 CCND1 (human) (UniProt Q00534+P24385)
TEK (human) = TEK (human) (UniProt Q02763)
MAP3K9 (human) = MAP3K9 (human) (UniProt P80192)
MAP3K11 (human) = MAP3K11 (human) (UniProt Q16584)
PRKD2 (human) = PRKD2 (human) (UniProt Q9BZL6)
CLK2 (human) = CLK2 (human) (UniProt P49760)
NTRK2 (human) = NTRK2 (human) (UniProt Q16620)
PAK1 (human) = PAK1 (human) (UniProt Q13153)
STK38 (human) = STK38 (human) (UniProt Q15208)
STK4 (human) = STK4 (human) (UniProt Q13043)
STK4 (human), sequence (Q13043 whole entry, looked up): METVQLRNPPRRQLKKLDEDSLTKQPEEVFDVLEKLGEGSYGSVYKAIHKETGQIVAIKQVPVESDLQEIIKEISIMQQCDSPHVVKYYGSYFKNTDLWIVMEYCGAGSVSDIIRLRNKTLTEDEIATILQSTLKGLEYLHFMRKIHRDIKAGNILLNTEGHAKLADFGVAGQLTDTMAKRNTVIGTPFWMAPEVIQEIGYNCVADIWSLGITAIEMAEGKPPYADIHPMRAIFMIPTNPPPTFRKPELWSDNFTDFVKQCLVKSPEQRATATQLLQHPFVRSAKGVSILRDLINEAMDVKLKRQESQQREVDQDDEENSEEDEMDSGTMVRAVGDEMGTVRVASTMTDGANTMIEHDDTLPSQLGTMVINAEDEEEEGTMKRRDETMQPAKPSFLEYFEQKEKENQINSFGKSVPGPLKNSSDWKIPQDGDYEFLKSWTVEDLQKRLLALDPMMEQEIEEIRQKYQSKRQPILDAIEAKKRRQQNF

LCK (human) = LCK (human) (UniProt P06239)
DAPK2 (human) = DAPK2 (human) (UniProt Q9UIK4)
GRK5 (human) = GRK5 (human) (UniProt P34947)
GRK5 (human), sequence (P34947 whole entry, looked up): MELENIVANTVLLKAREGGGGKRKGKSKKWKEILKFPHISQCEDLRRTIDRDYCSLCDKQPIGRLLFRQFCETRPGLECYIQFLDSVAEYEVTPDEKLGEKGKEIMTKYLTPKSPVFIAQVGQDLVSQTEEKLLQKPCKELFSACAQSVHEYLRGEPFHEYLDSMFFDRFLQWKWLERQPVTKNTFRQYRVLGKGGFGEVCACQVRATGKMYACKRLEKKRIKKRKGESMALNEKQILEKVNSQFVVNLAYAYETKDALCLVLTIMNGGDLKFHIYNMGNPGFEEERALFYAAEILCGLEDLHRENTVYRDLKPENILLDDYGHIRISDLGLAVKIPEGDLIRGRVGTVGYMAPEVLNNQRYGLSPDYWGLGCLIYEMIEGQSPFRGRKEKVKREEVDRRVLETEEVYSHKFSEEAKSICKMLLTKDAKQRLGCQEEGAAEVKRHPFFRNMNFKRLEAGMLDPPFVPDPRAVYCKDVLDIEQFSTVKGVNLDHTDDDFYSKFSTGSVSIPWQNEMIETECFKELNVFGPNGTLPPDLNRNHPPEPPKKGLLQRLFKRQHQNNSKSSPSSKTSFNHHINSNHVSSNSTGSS

CAMK2B (human) = CAMK2B (human) (UniProt Q13554)
PRKCB2 (human) = PRKCB2 (human) (UniProt P05771)
STK39 (human) = STK39 (human) (UniProt Q9UEW8)
PRKCG (human) = PRKCG (human) (UniProt P05129)
MUSK (human) = MUSK (human) (UniProt O15146)
MET (human) = MET (human) (UniProt P08581)
MET (human), sequence (P08581 whole entry, looked up): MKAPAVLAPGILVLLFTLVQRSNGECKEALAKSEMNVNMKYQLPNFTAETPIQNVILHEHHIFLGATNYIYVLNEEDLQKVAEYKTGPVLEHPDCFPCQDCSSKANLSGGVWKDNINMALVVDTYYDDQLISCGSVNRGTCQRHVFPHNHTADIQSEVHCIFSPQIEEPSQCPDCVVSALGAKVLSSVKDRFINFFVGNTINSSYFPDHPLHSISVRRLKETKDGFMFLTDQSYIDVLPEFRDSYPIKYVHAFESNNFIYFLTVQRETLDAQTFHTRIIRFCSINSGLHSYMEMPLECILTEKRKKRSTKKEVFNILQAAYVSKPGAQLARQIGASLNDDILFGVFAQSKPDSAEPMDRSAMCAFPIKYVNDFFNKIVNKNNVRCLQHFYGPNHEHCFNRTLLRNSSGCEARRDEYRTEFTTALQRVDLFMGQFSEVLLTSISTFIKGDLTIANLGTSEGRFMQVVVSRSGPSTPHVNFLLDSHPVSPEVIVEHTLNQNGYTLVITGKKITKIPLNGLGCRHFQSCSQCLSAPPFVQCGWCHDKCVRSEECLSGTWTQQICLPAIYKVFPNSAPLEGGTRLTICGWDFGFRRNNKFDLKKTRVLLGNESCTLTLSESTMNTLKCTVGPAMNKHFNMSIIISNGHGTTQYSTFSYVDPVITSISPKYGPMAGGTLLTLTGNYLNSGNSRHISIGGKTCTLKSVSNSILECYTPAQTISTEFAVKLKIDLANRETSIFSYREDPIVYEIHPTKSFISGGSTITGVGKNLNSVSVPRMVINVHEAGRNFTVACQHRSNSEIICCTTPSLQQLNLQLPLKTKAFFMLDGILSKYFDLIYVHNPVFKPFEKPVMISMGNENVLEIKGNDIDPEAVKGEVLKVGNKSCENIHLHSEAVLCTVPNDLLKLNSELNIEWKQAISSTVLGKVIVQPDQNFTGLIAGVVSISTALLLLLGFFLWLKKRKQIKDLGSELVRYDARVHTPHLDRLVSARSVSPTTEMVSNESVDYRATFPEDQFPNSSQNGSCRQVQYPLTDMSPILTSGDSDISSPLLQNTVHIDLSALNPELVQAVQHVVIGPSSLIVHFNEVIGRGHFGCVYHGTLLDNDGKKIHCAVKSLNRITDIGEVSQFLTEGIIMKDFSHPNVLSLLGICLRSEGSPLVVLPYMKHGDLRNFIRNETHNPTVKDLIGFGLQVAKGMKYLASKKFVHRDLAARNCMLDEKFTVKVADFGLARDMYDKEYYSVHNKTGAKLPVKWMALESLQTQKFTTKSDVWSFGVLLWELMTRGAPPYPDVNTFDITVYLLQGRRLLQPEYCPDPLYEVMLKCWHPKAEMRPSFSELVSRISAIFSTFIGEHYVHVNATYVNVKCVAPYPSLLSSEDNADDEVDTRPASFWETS

STK17A (human) = STK17A (human) (UniProt Q9UEE5)
MAPK13 (human) = MAPK13 (human) (UniProt O15264)
STK11 (human) = STK11 (human) (UniProt Q15831)
ADRBK2 (human) = ADRBK2 (human) (UniProt P35626)
MAP3K7 TAB1 (human) = MAP3K7 TAB1 (human) (UniProt O43318+Q15750)
MAP4K4 (human) = MAP4K4 (human) (UniProt O95819)
MYLK (human) = MYLK (human) (UniProt Q15746)
EPHA1 (human) = EPHA1 (human) (UniProt P21709)
DCLK2 (human) = DCLK2 (human) (UniProt Q8N568)
SRPK2 (human) = SRPK2 (human) (UniProt P78362)
RPS6KA5 KD2 (human) = RPS6KA5 KD2 (human) (UniProt O75582)
MARK1 (human) = MARK1 (human) (UniProt Q9P0L2)
DSTYK (human) = DSTYK (human) (UniProt Q6XUX3)
ERBB2 (human) = ERBB2 (human) (UniProt P04626)
INSR (human) = INSR (human) (UniProt P06213)
NLK (human) = NLK (human) (UniProt Q9UBE8)
IGF1R (human) = IGF1R (human) (UniProt P08069)
WNK2 (human) = WNK2 (human) (UniProt Q9Y3S1)
NTRK3 (human) = NTRK3 (human) (UniProt Q16288)
MINK1 (human) = MINK1 (human) (UniProt Q8N4C8)
MINK1 (human), sequence (Q8N4C8 whole entry, looked up): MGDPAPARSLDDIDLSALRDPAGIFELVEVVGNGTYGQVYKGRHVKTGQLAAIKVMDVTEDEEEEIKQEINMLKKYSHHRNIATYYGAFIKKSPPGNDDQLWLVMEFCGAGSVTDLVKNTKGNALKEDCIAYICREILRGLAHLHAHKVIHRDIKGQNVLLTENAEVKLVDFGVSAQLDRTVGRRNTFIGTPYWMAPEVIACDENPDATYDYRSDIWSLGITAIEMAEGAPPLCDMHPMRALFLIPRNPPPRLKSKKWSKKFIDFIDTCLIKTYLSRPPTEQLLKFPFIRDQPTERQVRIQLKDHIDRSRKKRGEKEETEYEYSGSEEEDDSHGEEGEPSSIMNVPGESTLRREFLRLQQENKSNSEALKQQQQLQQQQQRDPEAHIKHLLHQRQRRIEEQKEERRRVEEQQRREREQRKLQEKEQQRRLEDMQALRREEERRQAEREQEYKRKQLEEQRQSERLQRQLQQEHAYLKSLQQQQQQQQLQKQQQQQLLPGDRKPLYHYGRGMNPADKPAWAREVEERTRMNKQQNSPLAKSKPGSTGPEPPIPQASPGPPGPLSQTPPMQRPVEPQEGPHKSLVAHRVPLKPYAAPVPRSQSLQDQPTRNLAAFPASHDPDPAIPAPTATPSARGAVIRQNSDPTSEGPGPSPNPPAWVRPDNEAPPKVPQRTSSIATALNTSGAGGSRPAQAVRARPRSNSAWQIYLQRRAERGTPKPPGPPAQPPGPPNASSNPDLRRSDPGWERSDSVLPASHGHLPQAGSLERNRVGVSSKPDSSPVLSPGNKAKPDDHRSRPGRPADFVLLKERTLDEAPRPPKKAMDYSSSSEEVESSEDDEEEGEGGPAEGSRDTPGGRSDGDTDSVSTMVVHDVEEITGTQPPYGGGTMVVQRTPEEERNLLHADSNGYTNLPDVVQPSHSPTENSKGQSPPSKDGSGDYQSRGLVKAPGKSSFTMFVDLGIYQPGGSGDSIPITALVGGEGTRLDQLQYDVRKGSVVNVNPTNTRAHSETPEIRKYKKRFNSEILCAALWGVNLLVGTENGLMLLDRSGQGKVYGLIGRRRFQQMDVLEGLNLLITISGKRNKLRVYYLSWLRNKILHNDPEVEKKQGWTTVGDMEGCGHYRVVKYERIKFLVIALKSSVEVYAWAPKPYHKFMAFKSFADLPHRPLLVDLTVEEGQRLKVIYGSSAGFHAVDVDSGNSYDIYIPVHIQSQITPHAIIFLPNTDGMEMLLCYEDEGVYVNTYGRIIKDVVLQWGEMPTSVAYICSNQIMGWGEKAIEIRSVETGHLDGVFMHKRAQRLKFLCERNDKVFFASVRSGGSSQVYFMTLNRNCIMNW

AKT3 (human) = AKT3 (human) (UniProt Q9Y243)
SRC (human) = SRC (human) (UniProt P12931)

TEK (human), sequence (Q02763 whole entry, looked up): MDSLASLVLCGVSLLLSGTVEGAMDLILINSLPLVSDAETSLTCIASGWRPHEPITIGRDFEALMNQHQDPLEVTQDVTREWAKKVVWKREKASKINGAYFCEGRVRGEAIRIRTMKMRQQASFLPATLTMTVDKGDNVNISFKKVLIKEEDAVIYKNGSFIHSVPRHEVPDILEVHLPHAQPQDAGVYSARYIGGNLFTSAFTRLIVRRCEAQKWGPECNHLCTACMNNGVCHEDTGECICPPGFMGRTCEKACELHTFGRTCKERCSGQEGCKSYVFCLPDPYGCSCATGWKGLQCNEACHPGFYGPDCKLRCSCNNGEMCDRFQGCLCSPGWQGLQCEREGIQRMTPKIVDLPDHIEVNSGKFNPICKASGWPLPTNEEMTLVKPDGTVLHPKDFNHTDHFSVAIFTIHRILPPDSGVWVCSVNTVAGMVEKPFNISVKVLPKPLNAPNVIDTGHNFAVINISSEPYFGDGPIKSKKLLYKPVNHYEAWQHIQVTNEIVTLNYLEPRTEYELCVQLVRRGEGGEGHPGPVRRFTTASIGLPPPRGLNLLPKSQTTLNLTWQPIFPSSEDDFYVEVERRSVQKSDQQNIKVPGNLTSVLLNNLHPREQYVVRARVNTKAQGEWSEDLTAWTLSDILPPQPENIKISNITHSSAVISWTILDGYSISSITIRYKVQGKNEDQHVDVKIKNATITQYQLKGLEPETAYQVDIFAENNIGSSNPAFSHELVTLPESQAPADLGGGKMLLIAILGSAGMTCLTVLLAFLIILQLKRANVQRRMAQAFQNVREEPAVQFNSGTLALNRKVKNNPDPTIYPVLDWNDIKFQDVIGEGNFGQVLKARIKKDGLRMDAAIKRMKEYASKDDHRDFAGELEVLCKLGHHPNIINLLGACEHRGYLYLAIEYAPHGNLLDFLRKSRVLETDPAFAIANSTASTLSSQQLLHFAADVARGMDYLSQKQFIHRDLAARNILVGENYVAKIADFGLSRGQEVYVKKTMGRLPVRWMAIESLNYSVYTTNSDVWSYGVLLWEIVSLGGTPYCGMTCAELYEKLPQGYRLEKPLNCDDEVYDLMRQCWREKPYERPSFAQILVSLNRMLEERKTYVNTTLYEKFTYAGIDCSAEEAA

Structure (SMILES): CO[C@H]1CC2CC[C@@H](C)[C@@](O)(O2)C(=O)C(=O)N2CCCC[C@H]2C(=O)OC([C@H](C)C[C@@H]2CC[C@@H](O)[C@H](OC)C2)CC(=O)[C@H](C)/C=C(\C)[C@@H](O)[C@@H](OC)C(=O)[C@H](C)C[C@H](C)/C=C/C=C/C=C/1C (stereo partly drawn)
residual activity (MAP3K2 (human)): 94.8% | residual activity (CDK6 CCND1 (human)): 99.8% | residual activity (TEK (human)): 97.6% | residual activity (MAP3K9 (human)): 87.3% | residual activity (MAP3K11 (human)): 98.5% | residual activity (PRKD2 (human)): 99% | residual activity (CLK2 (human)): 102% | residual activity (NTRK2 (human)): 106% | residual activity (PAK1 (human)): 95.6% | residual activity (STK38 (human)): 92.8% | residual activity (STK4 (human)): 106% | residual activity (LCK (human)): 99.4% | residual activity (DAPK2 (human)): 112% | residual activity (GRK5 (human)): 98.7% | residual activity (CAMK2B (human)): 99.2% | residual activity (PRKCB2 (human)): 89.1% | residual activity (STK39 (human)): 97.9% | residual activity (PRKCG (human)): 106% | residual activity (MUSK (human)): 87.7% | residual activity (MET (human)): 98.1% | residual activity (STK17A (human)): 95.9% | residual activity (MAPK13 (human)): 121% | residual activity (STK11 (human)): 91.1% | residual activity (ADRBK2 (human)): 98% | residual activity (MAP3K7 TAB1 (human)): 95.2% | residual activity (MAP4K4 (human)): 87.7% | residual activity (MYLK (human)): 102% | residual activity (EPHA1 (human)): 99.5% | residual activity (DCLK2 (human)): 99.2% | residual activity (SRPK2 (human)): 104% | residual activity (RPS6KA5 KD2 (human)): 106% | residual activity (MARK1 (human)): 98.8% | residual activity (DSTYK (human)): 107% | residual activity (ERBB2 (human)): 97.3% | residual activity (INSR (human)): 90.3% | residual activity (NLK (human)): 97.3% | residual activity (IGF1R (human)): 112% | residual activity (WNK2 (human)): 103% | residual activity (NTRK3 (human)): 103% | residual activity (MINK1 (human)): 100% | residual activity (AKT3 (human)): 97.8% | residual activity (SRC (human)): 96%

Structure (SMILES): O=C1NC(=O)c2c1c1c3ccccc3n3c1c1c2c2ccccc2n1C1CCC3O1
residual activity (MAP3K2 (human)): 14% | residual activity (CDK6 CCND1 (human)): 6.06% | residual activity (TEK (human)): 94.1% | residual activity (MAP3K9 (human)): 8.72% | residual activity (MAP3K11 (human)): 1.37% | residual activity (PRKD2 (human)): 2.02% | residual activity (CLK2 (human)): 52.1% | residual activity (NTRK2 (human)): 6.87% | residual activity (PAK1 (human)): 23.6% | residual activity (STK38 (human)): 46.2% | residual activity (STK4 (human)): 3.56% | residual activity (LCK (human)): 36.2% | residual activity (DAPK2 (human)): 39.4% | residual activity (GRK5 (human)): 88.7% | residual activity (CAMK2B (human)): 9.85% | residual activity (PRKCB2 (human)): 6.42% | residual activity (STK39 (human)): 88.3% | residual activity (PRKCG (human)): 32.8% | residual activity (MUSK (human)): 25.8% | residual activity (MET (human)): 76.9% | residual activity (STK17A (human)): 8.65% | residual activity (MAPK13 (human)): 114% | residual activity (STK11 (human)): 50.5% | residual activity (ADRBK2 (human)): 101% | residual activity (MAP3K7 TAB1 (human)): 6.06% | residual activity (MAP4K4 (human)): 0.995% | residual activity (MYLK (human)): 4.01% | residual activity (EPHA1 (human)): 90.1% | residual activity (DCLK2 (human)): 89.6% | residual activity (SRPK2 (human)): 107% | residual activity (RPS6KA5 KD2 (human)): 9.88% | residual activity (MARK1 (human)): 10.4% | residual activity (DSTYK (human)): 45.5% | residual activity (ERBB2 (human)): 98.4% | residual activity (INSR (human)): 17.2% | residual activity (NLK (human)): 74.1% | residual activity (IGF1R (human)): 63.8% | residual activity (WNK2 (human)): 93.6% | residual activity (NTRK3 (human)): 1.41% | residual activity (MINK1 (human)): 0.901% | residual activity (AKT3 (human)): 27.1% | residual activity (SRC (human)): 69.5%

residual activity (MAP3K2 (human)): 68.5% | residual activity (CDK6 CCND1 (human)): 84.8% | residual activity (TEK (human)): 90.8% | residual activity (MAP3K9 (human)): 95.2% | residual activity (MAP3K11 (human)): 79.1% | residual activity (PRKD2 (human)): 58.3% | residual activity (CLK2 (human)): 5.1% | residual activity (NTRK2 (human)): 35.7% | residual activity (PAK1 (human)): 87.7% | residual activity (STK38 (human)): 102% | residual activity (STK4 (human)): 49.1% | residual activity (LCK (human)): 29.3% | residual activity (DAPK2 (human)): 111% | residual activity (GRK5 (human)): 98.9% | residual activity (CAMK2B (human)): 89.8% | residual activity (PRKCB2 (human)): 99.1% | residual activity (STK39 (human)): 84.7% | residual activity (PRKCG (human)): 94.8% | residual activity (MUSK (human)): 84.2% | residual activity (MET (human)): 1.18% | residual activity (STK17A (human)): 97% | residual activity (MAPK13 (human)): 100% | residual activity (STK11 (human)): 89.9% | residual activity (ADRBK2 (human)): 103% | residual activity (MAP3K7 TAB1 (human)): 79.8% | residual activity (MAP4K4 (human)): 40.9% | residual activity (MYLK (human)): 84.3% | residual activity (EPHA1 (human)): 108% | residual activity (DCLK2 (human)): 90.4% | residual activity (SRPK2 (human)): 60.5% | residual activity (RPS6KA5 KD2 (human)): 94.1% | residual activity (MARK1 (human)): 62.5% | residual activity (DSTYK (human)): 97.2% | residual activity (ERBB2 (human)): 91.5% | residual activity (INSR (human)): 98.8% | residual activity (NLK (human)): 106% | residual activity (IGF1R (human)): 103% | residual activity (WNK2 (human)): 112% | residual activity (NTRK3 (human)): 5.93% | residual activity (MINK1 (human)): 68.7% | residual activity (AKT3 (human)): 107% | residual activity (SRC (human)): 53.3%
Structure (SMILES): Cc1[nH]c(/C=C2\C(=O)Nc3ccc(S(=O)(=O)N(C)c4cccc(Cl)c4)cc32)c(C)c1C(=O)N1CCN(C)CC1

Structure (SMILES): Nc1ncnc2[nH]nc(Nc3ccc(F)cc3)c12
residual activity (MAP3K2 (human)): 95.6% | residual activity (CDK6 CCND1 (human)): 96.6% | residual activity (TEK (human)): 94.9% | residual activity (MAP3K9 (human)): 100% | residual activity (MAP3K11 (human)): 93.9% | residual activity (PRKD2 (human)): 81.3% | residual activity (CLK2 (human)): 92.4% | residual activity (NTRK2 (human)): 101% | residual activity (PAK1 (human)): 95.2% | residual activity (STK38 (human)): 101% | residual activity (STK4 (human)): 90.4% | residual activity (LCK (human)): 98.3% | residual activity (DAPK2 (human)): 85.5% | residual activity (GRK5 (human)): 97.1% | residual activity (CAMK2B (human)): 97.7% | residual activity (PRKCB2 (human)): 105% | residual activity (STK39 (human)): 88.5% | residual activity (PRKCG (human)): 96% | residual activity (MUSK (human)): 93.9% | residual activity (MET (human)): 124% | residual activity (STK17A (human)): 88.1% | residual activity (MAPK13 (human)): 104% | residual activity (STK11 (human)): 97.1% | residual activity (ADRBK2 (human)): 102% | residual activity (MAP3K7 TAB1 (human)): 100% | residual activity (MAP4K4 (human)): 59.4% | residual activity (MYLK (human)): 94.7% | residual activity (EPHA1 (human)): 101% | residual activity (DCLK2 (human)): 99.5% | residual activity (SRPK2 (human)): 97.1% | residual activity (RPS6KA5 KD2 (human)): 96.7% | residual activity (MARK1 (human)): 93.8% | residual activity (DSTYK (human)): 109% | residual activity (ERBB2 (human)): 101% | residual activity (INSR (human)): 98.5% | residual activity (NLK (human)): 95.4% | residual activity (IGF1R (human)): 104% | residual activity (WNK2 (human)): 110% | residual activity (NTRK3 (human)): 81.5% | residual activity (MINK1 (human)): 88.9% | residual activity (AKT3 (human)): 104% | residual activity (SRC (human)): 89.6%

Source: the kinase profiling compilation of Christmann-Franck et al. (2016)
